The source made the active and inactive calls. The calls are words filed in the database; no cut-off is given here.
Tests used:
[1] = biological target: Nuclear factor NF-kappa-B complex (Homo sapiens) (UniProt Q00653+P19838+Q04206); assay: Activation of NF-kappaB mediated pro-inflammatory effector proteins in human THP-1 cells at 2 to 10 nM incubated for 4 hrs by western blot analysis; format: cell-based; conditions: filed as activator, dose 2-10 nM
[2] = biological target: T1, Stimulator of interferon genes protein (Homo sapiens, UniProt Q86WV6); conditions: THP1-Dual, filed as activator, dose 50.0 µM, time 24.0 hrs
T1 sequence (Q86WV6 whole entry): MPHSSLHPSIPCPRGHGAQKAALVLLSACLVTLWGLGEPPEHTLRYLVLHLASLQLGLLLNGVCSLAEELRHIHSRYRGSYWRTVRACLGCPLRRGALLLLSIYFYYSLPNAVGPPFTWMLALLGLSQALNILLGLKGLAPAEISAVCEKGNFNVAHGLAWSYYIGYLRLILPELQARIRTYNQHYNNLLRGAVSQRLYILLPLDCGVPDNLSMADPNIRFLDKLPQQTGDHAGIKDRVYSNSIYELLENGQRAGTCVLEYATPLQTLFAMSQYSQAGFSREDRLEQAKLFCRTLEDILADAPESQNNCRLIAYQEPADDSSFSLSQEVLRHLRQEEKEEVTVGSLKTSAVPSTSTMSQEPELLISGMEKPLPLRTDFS

[3] = Terminal half life in BALB/c mouse at 3 mg/kg, iv by LC-MS/MS analysis; format: ADME, organism-based; conditions: in vivo, read-out: beta t1/2 (converted)
[4] = Toxicity in BALB/c mouse xenografted with mouse CT26 cells assessed as body weight loss at 0.015 mg/kg, iv measured after 8 days; format: organism-based; conditions: in vivo, 192 h, time 8 day
[5] = Toxicity in BALB/c mouse xenografted with mouse CT26 cells assessed as effect on body weight at 1.5 mg/kg, iv measured after 8 days; format: organism-based; conditions: in vivo, 192 h, time 8 day
[6] = Activation of IRF-mediated immune response in human THP1-Dual KO-STING cells co-expressing ISRE reporter assessed as normalized luciferase gene expression by measuring relative luciferase units at 50 uM incubated for 24 hrs by QUANTI Luc based microplate reader method; format: functional
RAW264.7 [7] = assay: Induction of IP-10 secretion in mouse RAW264.7 cells at 0.64 to 10000 nM by ELISA; format: functional, cell-based; conditions: dose 0.64-10000 nM
PBMC = assay: Induction of IFN-beta secretion in human PBMC cells at 1.6 to 1000 nM by ELISA; format: functional, cell-based; conditions: dose 1.6-1000 nM
CT26 [8] = assay: Antitumor immunity activity against mouse CT26 cells xenografted in BALB/c mouse model assessed as tumor growth inhibition at 0.015 mg/kg, iv measured after 8 days; format: functional, organism-based; conditions: time 8.0 day
RAW264.7 [9] = assay: Induction of TNF-alpha secretion in mouse RAW264.7 cells at 0.625 uM incubated for 24 hrs by ELISA; format: functional, cell-based
[10] = Induction of IP-10 secretion in human THP-1 cells assessed as maximal efficacy by ELISA relative to control; format: functional
RAW264.7 [11] = assay: Activation of NF-kappaB mediated pro-inflammatory effector proteins in mouse RAW264.7 cells at 100 to 500 nM for incubated for 3 hrs by western blot analysis; format: cell-based; conditions: filed as activator, dose 100-500 nM
CT26 [12] = assay: Immunological memory derived cancer inhibition in mouse CT26 cells inoculated in 1.5 mg/kg, iv for 8 days treated/cured BALB/c mouse model assessed as tumor recurrence followed by re-inoculation of cells; format: functional, organism-based; conditions: time 8.0 day
[13] = AUCinfinity in BALB/c mouse at 3 mg/kg, iv by LC-MS/MS analysis; format: ADME, organism-based; set-up: time infinity, dose 3 mg/kg, route iv; conditions: BALB/c, in vivo
RAW264.7 [14] = assay: Induction of IL-6 secretion in mouse RAW264.7 cells at 2 uM incubated for 24 hrs by ELISA; format: functional, cell-based
[15] = AUClast in BALB/c mouse at 3 mg/kg, iv by LC-MS/MS analysis; format: ADME, organism-based; set-up: time 0 - last, dose 3 mg/kg, route iv; conditions: in vivo
CT26 [16] = assay: Antitumor immunity activity against mouse CT26 cells xenografted in BALB/c mouse model assessed as tumor growth inhibition at 1.5 mg/kg, iv measured after 8 days; format: functional, organism-based; conditions: time 8.0 day
[17] = Volume of distribution at steady state in BALB/c mouse at 3 mg/kg, iv by LC-MS/MS analysis; format: ADME, organism-based; conditions: in vivo, read-out: Vdss
[18] = Clearance in BALB/c mouse at 3 mg/kg, iv by LC-MS/MS analysis; format: ADME, organism-based; conditions: BALB/c, in vivo
[19] = biological target: T1, Stimulator of interferon genes protein; assay: Activation of STING mediated immune response in human THP-1 cells assessed as induction of IP-10 secretion at 500 to 5000 nM measured after 24 hrs by ELISA; format: cell-based; conditions: filed as activator, dose 500-5000 nM
[20] = Cytotoxicity against human THP1-Dual KO-STING cells assessed as residual cell viability by CellTiter96 Aqueous One Solution Cell Proliferation Assay; format: functional; set-up: concentration or dose not given beside the values
[21] = biological target: T2, Stimulator of interferon genes protein (Mus musculus) (UniProt Q3TBT3); assay: Activation of STING mediated immune response in mouse RAW264.7 cells assessed as induction of IP-10 secretion at 5000 to 20000 nM measured after 24 hrs by ELISA; format: cell-based; conditions: filed as activator, dose 5000-20000 nM
T2 sequence (whole entry): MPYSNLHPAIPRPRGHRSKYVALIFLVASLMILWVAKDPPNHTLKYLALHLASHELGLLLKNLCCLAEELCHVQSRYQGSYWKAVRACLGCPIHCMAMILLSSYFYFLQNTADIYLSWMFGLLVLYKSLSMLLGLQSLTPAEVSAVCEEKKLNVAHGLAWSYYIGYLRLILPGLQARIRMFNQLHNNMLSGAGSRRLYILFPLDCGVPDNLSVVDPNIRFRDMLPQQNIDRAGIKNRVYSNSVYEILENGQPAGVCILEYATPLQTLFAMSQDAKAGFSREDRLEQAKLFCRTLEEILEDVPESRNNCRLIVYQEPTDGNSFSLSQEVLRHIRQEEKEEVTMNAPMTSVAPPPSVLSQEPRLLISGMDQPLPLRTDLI

THP1-Dual = assay: Cytotoxicity against human wild type THP1-Dual cells assessed as residual cell viability by CellTiter96 Aqueous One Solution Cell Proliferation Assay; format: functional; set-up: concentration or dose not given beside the values
[22] = biological target: T2, Stimulator of interferon genes protein (Mus musculus); assay: Activation of STING mediated immune response in mouse RAW264.7 cells assessed as induction of IFNbeta secretion at 5000 to 20000 nM measured after 24 hrs by ELISA; format: cell-based; conditions: filed as activator, dose 5000-20000 nM
[23] = biological target: T1, Stimulator of interferon genes protein; assay: Activation of STING mediated immune response in human THP-1 cells assessed as induction of IFNbeta secretion at 500 to 5000 nM measured after 24 hrs by ELISA; format: cell-based; conditions: filed as activator, dose 500-5000 nM
[24] = biological target: T1, Stimulator of interferon genes protein; assay: Binding affinity to recombinant human His-tagged STING by measuring fluorescent signals in the presence of d2 labelled STING wild type ligand by HTRF based microplate reader analysis
[25] = Solubility of the compound in DMSO at 50 to 100 uM incubated for 72 hrs; format: physicochemical; conditions: dose 50-100 µM

Sequence of Nuclear factor NF-kappa-B complex (Homo sapiens) (P19838 whole entry, looked up): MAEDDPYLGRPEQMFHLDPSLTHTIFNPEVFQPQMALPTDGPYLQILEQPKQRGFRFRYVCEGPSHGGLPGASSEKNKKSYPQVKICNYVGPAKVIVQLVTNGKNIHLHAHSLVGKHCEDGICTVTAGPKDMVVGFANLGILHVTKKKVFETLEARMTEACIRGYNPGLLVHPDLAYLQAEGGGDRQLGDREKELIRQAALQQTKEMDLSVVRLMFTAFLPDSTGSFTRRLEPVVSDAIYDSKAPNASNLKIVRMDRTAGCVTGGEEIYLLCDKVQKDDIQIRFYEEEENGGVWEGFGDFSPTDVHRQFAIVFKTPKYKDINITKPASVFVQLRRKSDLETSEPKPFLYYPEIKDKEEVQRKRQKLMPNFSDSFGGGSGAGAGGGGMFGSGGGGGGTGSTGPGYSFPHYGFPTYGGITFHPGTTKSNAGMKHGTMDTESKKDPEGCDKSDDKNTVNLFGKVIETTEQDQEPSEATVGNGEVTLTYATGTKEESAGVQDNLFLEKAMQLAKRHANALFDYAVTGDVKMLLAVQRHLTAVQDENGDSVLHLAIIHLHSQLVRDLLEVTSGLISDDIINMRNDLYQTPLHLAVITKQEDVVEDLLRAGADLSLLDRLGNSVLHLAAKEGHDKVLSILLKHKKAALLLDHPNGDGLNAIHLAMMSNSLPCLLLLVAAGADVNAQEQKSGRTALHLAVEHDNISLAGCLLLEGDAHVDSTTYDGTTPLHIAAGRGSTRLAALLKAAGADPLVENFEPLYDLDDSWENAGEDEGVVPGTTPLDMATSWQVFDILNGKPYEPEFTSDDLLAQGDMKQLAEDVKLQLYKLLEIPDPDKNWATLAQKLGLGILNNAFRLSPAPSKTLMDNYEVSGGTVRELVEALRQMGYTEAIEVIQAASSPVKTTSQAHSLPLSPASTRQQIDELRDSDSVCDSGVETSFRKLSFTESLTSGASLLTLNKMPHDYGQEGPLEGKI
Sequence of Nuclear factor NF-kappa-B complex (Homo sapiens) (Q00653 whole entry, looked up): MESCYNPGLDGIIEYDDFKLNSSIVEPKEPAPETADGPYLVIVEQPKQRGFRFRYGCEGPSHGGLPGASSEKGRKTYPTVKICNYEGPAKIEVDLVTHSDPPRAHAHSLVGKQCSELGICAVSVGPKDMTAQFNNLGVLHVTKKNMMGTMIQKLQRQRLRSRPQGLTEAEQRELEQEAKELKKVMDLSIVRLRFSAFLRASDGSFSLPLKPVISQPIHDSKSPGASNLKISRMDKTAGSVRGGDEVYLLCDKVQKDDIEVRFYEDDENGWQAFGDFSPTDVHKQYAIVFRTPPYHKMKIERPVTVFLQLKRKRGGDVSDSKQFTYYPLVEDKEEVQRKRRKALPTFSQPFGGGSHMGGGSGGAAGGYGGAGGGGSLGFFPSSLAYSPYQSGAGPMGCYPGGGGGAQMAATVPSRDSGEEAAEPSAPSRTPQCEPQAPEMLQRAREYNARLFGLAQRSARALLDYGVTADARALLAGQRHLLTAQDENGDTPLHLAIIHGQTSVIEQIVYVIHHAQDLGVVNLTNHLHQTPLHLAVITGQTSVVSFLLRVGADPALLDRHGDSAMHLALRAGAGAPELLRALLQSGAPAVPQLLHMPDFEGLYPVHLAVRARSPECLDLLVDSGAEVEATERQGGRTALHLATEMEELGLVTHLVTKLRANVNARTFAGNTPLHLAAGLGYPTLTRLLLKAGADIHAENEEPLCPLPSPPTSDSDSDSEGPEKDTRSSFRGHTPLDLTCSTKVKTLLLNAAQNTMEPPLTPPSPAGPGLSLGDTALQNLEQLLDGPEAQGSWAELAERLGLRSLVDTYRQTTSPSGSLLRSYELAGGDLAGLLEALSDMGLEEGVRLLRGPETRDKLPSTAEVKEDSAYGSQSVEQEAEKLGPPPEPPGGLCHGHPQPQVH
Sequence of Nuclear factor NF-kappa-B complex (Homo sapiens) (Q04206 whole entry, looked up): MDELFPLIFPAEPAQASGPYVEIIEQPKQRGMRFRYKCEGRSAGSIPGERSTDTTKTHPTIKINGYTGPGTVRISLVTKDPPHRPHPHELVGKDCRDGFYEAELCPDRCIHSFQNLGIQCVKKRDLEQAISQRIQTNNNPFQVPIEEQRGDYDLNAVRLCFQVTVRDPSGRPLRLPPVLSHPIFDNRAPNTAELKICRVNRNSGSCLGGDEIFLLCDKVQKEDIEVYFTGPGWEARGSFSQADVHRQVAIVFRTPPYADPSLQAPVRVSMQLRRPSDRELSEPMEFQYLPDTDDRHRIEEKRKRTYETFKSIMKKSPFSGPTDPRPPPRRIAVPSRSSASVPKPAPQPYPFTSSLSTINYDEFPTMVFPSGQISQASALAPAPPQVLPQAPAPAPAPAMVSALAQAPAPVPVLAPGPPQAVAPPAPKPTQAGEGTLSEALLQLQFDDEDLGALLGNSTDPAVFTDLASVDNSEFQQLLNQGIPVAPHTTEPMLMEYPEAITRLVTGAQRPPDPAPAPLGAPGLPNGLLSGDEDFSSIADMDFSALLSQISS

CCn1nc(C)cc1C(=O)NCCCOc1cc(C(N)=O)cc2nc(NC(=O)c3cc(C)nn3CC)n(C/C=C/Cn3c(NC(=O)c4cc(C)nn4CC)nc4cc(C(N)=O)cc(OC)c43)c12
Activity [1]: Active
RLU [2]: 100
half-life [3]: 1.75 h
Activity [4]: Non-Toxic
Activity [5]: Non-Toxic
RLU [6]: 0.8
Activity (RAW264.7 [7]): Active
Activity (PBMC): Active
Activity (CT26 [8]): Active
Activity (RAW264.7 [9]): Active
Emax [10]: 325%
Activity (RAW264.7 [11]): Active
Activity (CT26 [12]): Active
AUC(0-inf) [13]: 4300 ng·h/mL
Activity (RAW264.7 [14]): Active
AUC(0-t) [15]: 4240 ng·h/mL
Activity (CT26 [16]): Active
Vd [17]: 1.81 L/kg
clearance [18]: 12 mL/min/kg

CCn1nc(C)cc1C(=O)/N=c1\[nH]c2cc(C(N)=O)ccc2n1CCCCn1/c(=N/C(=O)c2cc(C)nn2CC)[nH]c2cc(C(N)=O)ccc21
Activity [19]: Active
RLU [2]: 97.8
Activity [20]: 93.8%
Activity [21]: Active
RLU [6]: 0.8
Activity (THP1-Dual): 97.4%
Activity [22]: Active
Activity [23]: Active

CCn1nc(C)cc1C(=O)Nc1nc2cc(C(N)=O)ccc2n1CCCCn1c(NC(=O)c2cc(C)nn2CC)nc2cc(C(N)=O)ccc21
IC50 [24]: 6.16 nM
solubility [25]: Insoluble

Reference: ChEMBL document CHEMBL5154810, “Development of Potent Immune Modulators Targeting Stimulator of Interferon Genes Receptor” (J Med Chem, 2022)
